Source: article PMC11381544 (Nature Communications, 2024)

Test system: P3H1 within the PCP complex
Assay: 2-OG dependent oxygenase activity
Type: biochemical, human
Details: Succinate-Glo assay, Fig. 1g, Fig. 3f, Supplementary Fig. 1f

Row | Substance | 2OG-Fe (II) oxygenase / P3H1 activity, in words | 2OG-Fe (II) oxygenase / P3H1 activity, in words (listed as PPIB^R95A) | 2OG-Fe (II) oxygenase / P3H1 activity, in words (listed as R95A)
1 | PCP ternary complex: low molecular weight elution fractions corresponding to the PCP ternary complex | inhibited upon depletion of ferrous ions | – | –
2 | cyclosporin A [CsA, reference compound] | hydroxylation enhancement was absent | – | –
3 | peak HW: high molecular weight elution fractions corresponding to the PCP dual-ternary complex | slightly lower P3H1 activity | – | –
4 | PCP-PPIBR95A: PCP complex with PPIB enzymatic mutation at the PI-site, R95A | – | elevated P3H1 activities | enhancing P3H1 activities
